Measurements: patent US5459256A, “Lipophilic, aminohydrolase-activated prodrugs” (priority 1991, dated 1995)
Entries after “also recorded” stand apart in the source; their conditions may differ.

Tested on: HIV-1/IIIB (CD4^+ ATH8 cells)
Assay: HIV cytopathic effect inhibition assay in ATH8 cells (% protection)
Type: cell-based
Conditions: for inhibition at 10 µM: Human immunodeficiency virus 1, IIIB, ATH-8, 192 h
Procedure: HIV Cytopathic Effect Inhibition Assay.
The HIV cytopathic effect inhibition assay was performed as previously described. (Mitsuya, H. & Broder, S. Proc. Nat. Acad. Sci. USA 1986, 83, 1911) Briefly, 200,000 target CD4^+ ATH8 cells were exposed to cell-free HIV-1/IIIB at a dose of 43 (or 1087 for compound 1g) TCID50 (50% tissue culture infectious dose) for 1 h, resuspended in 2 ml of fresh culture media containing interleukin 2, and cultured at 37° C. with or without test compounds in 5% CO2 -containing humidified air. On day 8 in culture, the viable cells were counted by using the dye exclusion method. All compounds, including inactives, were evaluated a minimum of two times in separate experiments. Data reported in Table II are from representative tests. The % protection against the virus was determined by the following formula: 100 times [(the number of viable cells exposed to HIV-1 and cultured in the presence of the compound minus the number of viable cells exposed to HIV-1 and cultured in the absence of compound) divided by (the number of viable cells cultured alone minus the number of viable cells exposed to HIV-1 and cultured in the absence of the compound)]. The % toxicity of a compound on the target cells was determined by the following formula: 100 times [1 minus (the number of total viable cells cultured in the presence of the compound divided by the number of total viable cells cultured alone)]. Calculated percentages equal to or less than zero are expressed as 0%.
^a ATH8 cells were exposed to HIV1/IIIB per cell for 1 hr and
cultured in the presence of various concentrations of each compound. On
day 8, the total viable cells were counted. Orders of numbers in the
column for concentrations correspond to the orders of numbers in other

## CNc1ncnc2c1ncn2[C@@H]1O[C@H](CO)C[C@@H]1F [Compound 1f, N^6 -Methyl-9-(2'3'-dideoxy-2'-fluoro-β-D-arabinofuranosyl)adenine]
10 μM, with dCF (2 μM), 11520 min
  % Protection: < 10%
ATH8 cells, dCF added
  anti-HIV activity in the presence of dCF (in words): protection was either abolished or greatly decreased; also recorded: can have activity abolished
ATH8 cells, no additive
  anti-HIV activity (in words): that activity was reduced relative to 1a; also recorded: reproducible, albeit unspectacular, activity; also recorded: only moderate anti-HIV activity
10 μM, no additive (Table IV experiment)
  inhibition at 10 µM: 13%
10 μM, with added ADA (0.7 U/ml)
  inhibition at 10 µM: 90%
